# Measurements published in patent US4584312A, “Substituted 2,3,4,9-tetrahydro-1H-carbazole-1-acetic acid, compositions and use” (American Home Products Corporation, priority 1985, dated 1986).
# Legend:
# [1] = system: Freund's complete adjuvant hind paw edema; assay: Preventative Adjuvant Edema; type: in vivo, rat (Male Sprague Dawley); conditions: 25 mg/kg, p.o.; rats; hind paw edema volume day 0 to day 3; dosed day 0, 1 and 2
# Experimental: This test is a primary screen for anti-inflammatory drugs.
# Male Sprague Dawley rats (180-200 g) are used. The animals have free access water but food is withdrawn 18 hours before testing.
# Freund's complete adjuvant is prepared by suspending 5 mg killed and dried Mycobacterium butyricum (Difco) in 1 ml liquid paraffin. The test compounds are dissolved in distilled water or suspended in distilled water with a few drops of Tween 80 according to their solubility. […]
# The method is essentially that described by Wax et al., J. Pharmacol. Exp. Ther., 192, 166-171 (1975). Groups of rats are injected intradermally in the left hind paw with 0.1 ml of Freund's complete adjuvant. The test compound or vehicle is administered immediately before the adjuvant, 24 hours and 48 hours after the adjuvant (day 0, 1 and 2). The injected hind paw volume is measured before the injection of adjuvant and 24 hrs. after the last drug administration (day 3) by means of a plethysmometer (Buxco Electronics Inc.). The difference between the hind paw volume on day 0 and day 3 represents the edema volume. Phenylbutazone (50 mg/kg, p.o.) is included as a positive control.
# The mean edema volume (expressed as ml±SEM) IS calculated for each group and the percentage protection conferred by the drug is calculated: [formula] where c is the mean edema volume for the untreated controls and t is the mean edema volume for the drug treated group.
# [2] = system: phenylquinone-induced writhing; assay: Phenylquinone Writhing in Mice; type: in vivo, mouse (Male Swiss albino); conditions: 25 mg/kg, p.o., phenylquinone i.p. 60 minutes after dosing, writhes counted over 15 min
# Experimental: A further test used to determine the utility of the compounds of the present invention is designated: DRUG EFFECTS ON PHENYLQUINONEINDUCED WRITHING IN MICE
# The objective of this test is to determine the ability of test drugs to inhibit the nociceptive (pain) response of mice injected with a chemical irritant. This test is a primary screen for both peripheral and centrally acting analgesic drugs.
# Male Swiss albino mice (15-25 g). The animals are fasted for 18 hours prior to use but have free access to water.
# Drugs are dissolved or suspended according to their solubility in 0.5% methyl cellulose or 0.5% Tween 80. They are administered by gastric lavage in a volume of 5 ml/kg. For primary screening all drugs are administered at the arbitary dosage of 200 mg/kg, p.o. to a group of 10 mice.
# A modification of the method of Siegmund et al., Proc. Soc. Exp. Biol. Med., 95, 729-731 (1957) is used. Groups of 5 mice are dosed with the test compound or vehicle control. Sixty minutes later the animals are injected i.p. with 0.3 ml/20 g body weight of a 0.02% solution of phenylquinone (PBQ; 2-phenyl-1,4-benzoquinone) and placed in individual observation boxes. The number of writhing or abdominal squirming movements made by each mouse during the following 15 min. period is counted. The experiment is repeated with another group of 5 mice and the mean number of writhes per mouse for a group of 10 mice is calculated.
# Drug treated and vehicle-treated control groups are compared and the percentage protection conferred by the drug is calculated: [formula] where c=mean number of writhes in the control group where t=mean number of writhes in the test drug group
SMILES,% Inhibition (Preventative Adjuvant Edema) [1] [%],% Inhibition (Phenylquinone Writhing in Mice) [2] [%]
"CCc1cccc2c3c([nH]c12)C(CC)(CC(=O)O)CCC3C1CCCC1 (single isomer, unassigned) [Example 2 d Isomer A, 4-cyclopentyl-1,8-diethyl-2,3,4,9-tetrahydro-1H-carbazole-1-acetic acid]",0,35
"CCc1cccc2c3c([nH]c12)C(CC)(CC(=O)O)CCC3C1CC1 (single isomer, unassigned) [Example 1 f Isomer B, 4-Cyclopropyl-1,8-diethyl-2,3,4,9-tetrahydro-1H-carbazole-1-acetic Acid]",12,49
"CCc1cccc2c3c([nH]c12)C(CC)(CC(=O)O)CCC3C1CC1 (single isomer, unassigned) [Example 1 f Isomer A, 4-Cyclopropyl-1,8-diethyl-2,3,4,9-tetrahydro-1H-carbazole-1-acetic Acid]",0,31
"CCc1cccc2c3c([nH]c12)C(CC)(CC(=O)O)CCC3C1CCCC1 (single isomer, unassigned) [Example 2 c Isomer B, 4-Cyclopentyl-1,8-diethyl-2,3,4,9-tetrahydro-1H-carbazole-1-acetic acid]",0,17
